Our source for the Ki, MED and ED50 values is ChEMBL document CHEMBL3593203, “The twin drug approach for novel nicotinic acetylcholine receptor ligands” (Bioorg Med Chem, 2015).

Usually Ki stands for the dissociation constant of the complex between target and ligand, obtained from inhibition or displacement. Higher therefore signals a looser hold on the target. Usually ED50 stands for the midpoint of the dose-response relation. A lower ED50 goes with greater potency.

Assay [1] in a line: Displacement of Torpedo californica electroplax muscle type (alpha1)2beta1gammadelta nicotine acetylcholine receptor (unknown origin) after 90 mins by radioligand displacement assay. The arrangement: species or system Tetronarce californica. On the technique in general: In a radioligand displacement assay an active substance lowers the binding of a labelled ligand.
Assay [2] has as its target T1, Neuronal acetylcholine receptor subunit alpha-7 (Rattus norvegicus, UniProt Q05941). Put plainly: Displacement of [3H]-MLA from Sprague-Dawley rat brain alpha7 nicotine acetylcholine receptor after 90 mins by radioligand displacement assay.
For assay [3], the target named is T2, Neuronal acetylcholine receptor; alpha4/beta2 (Rattus norvegicus, UniProt P09483+P12390). The assay is described as follows: Displacement of [3H]-epibatidine from Sprague-Dawley rat brain alpha4beta2 nicotine acetylcholine receptor after 90 mins by radioligand displacement assay.
T2 sequence (P09483 whole entry): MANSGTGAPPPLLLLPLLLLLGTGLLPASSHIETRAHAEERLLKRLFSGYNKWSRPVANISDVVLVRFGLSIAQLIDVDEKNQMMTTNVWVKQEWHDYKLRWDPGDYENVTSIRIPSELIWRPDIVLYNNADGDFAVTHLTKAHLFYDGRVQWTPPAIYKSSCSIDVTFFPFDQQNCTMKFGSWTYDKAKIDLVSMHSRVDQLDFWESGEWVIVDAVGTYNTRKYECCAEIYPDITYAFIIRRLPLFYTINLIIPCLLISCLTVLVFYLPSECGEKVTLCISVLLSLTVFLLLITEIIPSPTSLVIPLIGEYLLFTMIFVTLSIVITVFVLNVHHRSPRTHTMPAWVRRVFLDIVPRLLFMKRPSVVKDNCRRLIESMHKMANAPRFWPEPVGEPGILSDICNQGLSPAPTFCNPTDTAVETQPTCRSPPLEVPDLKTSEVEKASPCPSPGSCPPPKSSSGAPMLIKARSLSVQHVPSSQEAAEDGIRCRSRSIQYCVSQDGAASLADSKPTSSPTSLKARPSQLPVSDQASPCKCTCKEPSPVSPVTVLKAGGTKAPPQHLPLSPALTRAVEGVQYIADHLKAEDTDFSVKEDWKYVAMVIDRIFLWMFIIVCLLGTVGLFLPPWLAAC
T2 sequence (P12390 whole entry): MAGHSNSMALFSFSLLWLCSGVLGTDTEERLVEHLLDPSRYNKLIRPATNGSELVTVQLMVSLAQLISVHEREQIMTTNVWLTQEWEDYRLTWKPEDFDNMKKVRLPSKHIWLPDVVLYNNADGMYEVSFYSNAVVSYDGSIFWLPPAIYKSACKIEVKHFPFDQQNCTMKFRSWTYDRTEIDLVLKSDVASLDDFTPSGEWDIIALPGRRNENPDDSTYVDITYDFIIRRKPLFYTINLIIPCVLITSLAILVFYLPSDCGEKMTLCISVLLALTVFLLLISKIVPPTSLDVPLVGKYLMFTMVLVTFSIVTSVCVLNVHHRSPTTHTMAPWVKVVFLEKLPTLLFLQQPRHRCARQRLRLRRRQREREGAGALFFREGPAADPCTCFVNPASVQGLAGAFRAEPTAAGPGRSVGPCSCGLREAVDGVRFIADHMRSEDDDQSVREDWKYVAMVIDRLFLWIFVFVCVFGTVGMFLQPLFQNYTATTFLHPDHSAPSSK
The target of assay [4] is T1, Neuronal acetylcholine receptor subunit alpha-7. The assay is described as follows: Displacement of [3H]-MLA from alpha7 nicotine acetylcholine receptor in rat brain minus cerebellum after 60 mins by scintillation counting analysis. Type of assay: tissue-based.
Assay [5] relates to Mus musculus. The assay is described as follows: Antinociceptive activity in ip dosed mouse administered 30 mins prior to testing by hot plate test. Type of assay: functional.
Assay [6] has as its system Mus musculus. The assay is described as follows: Antinociceptive activity in sc dosed ICR mouse administered 5 mins prior to testing by tail-flick method. Type of assay: functional. A general note: Hot-plate and tail-flick tests time the reaction to a heat stimulus.
The target in assay [7] is T2, Neuronal acetylcholine receptor; alpha4/beta2. The assay is described as follows: Displacement of [3H]-nicotine from alpha4beta2 nicotine acetylcholine receptor in rat brain membranes after 90 mins by liquid scintillation spectrometric analysis. Type of assay: cell membranes, Membrane.

T1 sequence (Q05941 whole entry): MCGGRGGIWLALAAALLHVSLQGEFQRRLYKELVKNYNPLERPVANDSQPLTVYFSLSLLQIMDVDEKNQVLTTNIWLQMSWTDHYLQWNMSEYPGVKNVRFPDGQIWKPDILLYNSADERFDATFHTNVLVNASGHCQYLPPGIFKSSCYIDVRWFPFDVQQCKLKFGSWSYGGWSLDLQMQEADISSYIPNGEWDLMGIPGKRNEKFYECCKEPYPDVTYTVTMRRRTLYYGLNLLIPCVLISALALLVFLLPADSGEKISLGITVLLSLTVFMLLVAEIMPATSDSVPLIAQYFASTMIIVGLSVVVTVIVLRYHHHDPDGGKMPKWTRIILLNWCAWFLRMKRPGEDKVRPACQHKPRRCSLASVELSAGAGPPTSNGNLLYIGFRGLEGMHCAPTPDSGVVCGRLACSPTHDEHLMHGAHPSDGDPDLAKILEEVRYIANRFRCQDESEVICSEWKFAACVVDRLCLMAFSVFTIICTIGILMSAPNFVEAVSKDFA

Take `CN(C)CCOc1cncc(N2CC3CNCC(C3)C2)c1`: the Ki was above 1000 nM in assay [1], above 1000 nM in assay [2] and 0.188 nM in assay [3].

In the case of `CCN(CC)CCOc1ccc2c(c1)C(=O)c1cc(OCCN(CC)CC)ccc1-2` [TILORONE], affinity in assay [4] was put at a Ki of 110 nM. Turning to `CN(C)CCOc1cncc(N2CCOCC2)c1`, the inhibitory constant (Ki) in assay [3] is above 1000 nM. In the case of `CN(C)CCOc1cncc(N2CCCCC2)c1`, the Ki in assay [2] and in assay [3] was above 1000 nM throughout. As for `CN(C)CCOc1cncc(N2CCC2)c1`, the Ki was above 1000 nM in assay [2] and 784 nM in assay [3]. Turning to `CN(C)CCOc1cc(F)cc(N2CCNCC2)c1`, the Ki in assay [3] was above 1000 nM. The molecule `CN(C)CCOc1cc(F)cc(N2CCCNCC2)c1` returned an inhibition constant (Ki) in assay [3] above 1000 nM. The same measure, in the same setting: the figure for `CN(C)CCOc1cc(N2CCCNCC2)cc(F)c1F` is above 1000 nM; for `CN(C)CCOc1cc(F)cc(N2CCN(C)CC2)c1` it is above 1000 nM.

In the case of `CN(C)CCOc1cc(N2CCCN(C)CC2)cc(F)c1F`, the Ki in assay [3] was above 1000 nM. As to `CN(C)CCOc1cncc(N2CCCC2)c1`, the Ki in assay [2] and in assay [3] was above 1000 nM in each case.

In the case of `CN(C)CCOc1cncc(N2CCN(C)CC2)c1`, the Ki is above 1000 nM in assay [1], above 1000 nM in assay [2] and 66.8 nM in assay [3]. In assay [3], `CN(C)CCOc1cncc(N2CCCN(C)CC2)c1` yielded a Ki of 212 nM. For `CN(C)CCOc1cncc(-c2cncc(OCCN(C)C)c2)c1`, the Ki was 905 nM in assay [1], above 1000 nM in assay [2] and 290 nM in assay [3]. `c1cncc(N2CC3CNCC(C3)C2)c1` had an MED with Mus musculus [5] of 1.9 µmol/kg. Consider `CN(C)CCOc1cncc(N2CCNCC2)c1`, for which the Ki in assay [1] is above 1000 nM; in assay [2], above 1000 nM; in assay [3] it was 145 nM. With `CN(C)CCOc1cncc(N2CCC(O)CC2)c1`, the results for the Ki in assay [2] and in assay [3] were above 1000 nM and 613 nM, respectively.

Regarding `CN(C)CCOc1cncc(N2CCCNCC2)c1`, the Ki in assay [1] was above 1000 nM; in assay [2] it was above 1000 nM; in assay [3], 6.9 nM. With `CN(C)CCOc1cccnc1`, it took a dose of 15 mg/kg to reach the 50% effect level in the assay with Mus musculus [6] (ED50). `CN(C)CCOc1cc(N2CCN(C)CC2)cc(F)c1F`: in assay [3], the Ki was above 1000 nM.

As for `CN1CCCC1c1cncc(C2CCCN2C)c1` (stereo not given), the affinity in assay [7] corresponds to a Ki of 1180 nM. With `CN(C)CCOc1cc(F)cc(N2CC3CNCC(C3)C2)c1`, the Ki in assay [1] is above 1000 nM; in assay [2], above 1000 nM; in assay [3], 186 nM.

As for `CN(C)CCOc1cc(N2CCNCC2)cc(F)c1F`, the Ki in assay [3] is above 1000 nM. The same measure, in the same setting: the figure for `CN(C)CCOc1cc(F)cc(N2CCCN(C)CC2)c1` is above 1000 nM.
